Results on twelve compounds are retold here after ChEMBL document CHEMBL5614404, “Optimization of potent, broad-spectrum, and specific anti-influenza compounds targeting RNA polymerase PA-PB1 heterodimerization” (Eur J Med Chem, 2024).

The term pEC50 denotes the negative decadic logarithm of the EC50, by convention in mol/L. As usually defined, the pIC50 is −log10 of the IC50, conventionally taken in molar units.

SMILES strings stand for the structures. pEC50, pIC50: −log10 of the molar value.

Experiment [1] deals with Influenza A virus. Kind of experiment: Antiviral activity against Influenza A virus PR/8/34 infected in human A549 cells assessed as reduction in viral progeny preincubated for 1 hr followed by media replacement with compound measured after 23 hrs by virus yeild reduction assay. In kind it is functional, organism-based. Conditions: for pEC50: PR/8/34, A549; for Activity: time 24.0 hrs.

In experiment [2] the target is T1, RNA-directed RNA polymerase (Influenza A virus (strain A/Puerto Rico/8/1934 H1N1), UniProt P03428+P03431+P03433). Kind of experiment: Inhibition of Influenza A virus RdRp transfected in HEK293T cells co-expressing PA/PB1/PB2/NP/firefly luciferase/Renilla luciferase assessed as impaired nuclear import preincubated for 4 hrs followed by medium replacement with compound measured after 20 hrs by minireplicon assay. Format: cell-based. On the technique in general: A replicon is a self-replicating genome or part of one, used to study replication in cells.

The subject of experiment [3] is Influenza A virus. Kind of experiment: Antiviral activity against Oseltamivir-resistant Influenza A virus Parma/24/09 (H1N1) infected in MDCK cells incubated for 48 hrs by plaque reduction assay. In kind it is functional, organism-based.
For experiment [4], the target named is T1, RNA-directed RNA polymerase. As to the kind of experiment: Inhibition of Influenza A virus RdRp transfected in HEK293T cells co-expressing PA/PB1/PB2/NP/firefly luciferase/Renilla luciferase preincubated for 4 hrs followed by medium replacement with compound measured after 20 hrs by minireplicon assay. Format: cell-based.
In experiment [5] the test system is Influenza A virus. Kind of experiment: Antiviral activity against Amantadine-resistant/Oseltamivir-sensitive Influenza A virus WSN/1933 (H1N1) infected in MDCK cells by plaque reduction assay. In kind it is functional, organism-based. Background: Plaque reduction counts the foci of infection that form in a cell layer.
In experiment [6] the test system is Influenza A virus. As to the kind of experiment: Antiviral activity against Amantadine-resistant/Oseltamivir-sensitive Influenza A virus California/07/2009 (H1N1) infected in MDCK cells by plaque reduction assay. In kind it is functional, organism-based.
In experiment [7] the test system is Influenza A virus. Kind of experiment: Antiviral activity against Amantadine-resistant/Oseltamivir-sensitive Influenza A virus Switzerland/9715293/2013 (H3N2) infected in MDCK cells by plaque reduction assay. Format: functional, organism-based.
In experiment [8] the test system is Influenza A virus. As to the kind of experiment: Antiviral activity against Amantadine/Oseltamivir-resistant Influenza A virus North Carolina/39/2009 (H1N1) infected in MDCK cells by plaque reduction assay. Format: functional, organism-based.
The test system of experiment [9] is Influenza A virus. As to the kind of experiment: Antiviral activity against Amantadine/Oseltamivir-resistant Influenza A virus Washington/29/2009 (H1N1) infected in MDCK cells by plaque reduction assay. Format: functional, organism-based.
In experiment [10] the test system is Influenza A virus. As to the kind of experiment: Antiviral activity against Amantadine/Oseltamivir-resistant Influenza A virus Texas/04/2009 (H1N1) infected in MDCK cells by plaque reduction assay. Format: functional, organism-based.
In experiment [11] the test system is Influenza A virus. As to the kind of experiment: Antiviral activity against Amantadine/Oseltamivir-resistant Influenza A virus Denmark/528/2009 (H1N1) infected in MDCK cells by plaque reduction assay. Format: functional, organism-based.
Experiment [12] relates to Influenza B virus. As to the kind of experiment: Antiviral activity against Amantadine-resistant/Oseltamivir-sensitive Influenza B virus Wisconsin/01/2010 infected in MDCK cells by plaque reduction assay. In kind it is functional, organism-based. Conditions: Wisconsin/01/2010, MDCK.
For experiment [13], the system named is Influenza A virus. As to the kind of experiment: Antiviral activity against Amantadine-resistant Influenza A virus California/07/2009 (H1N1) clinical isolate infected in MDCK cells expressing ST6Gal by crystal violet staining based plaque reduction assay. Format: functional, organism-based.
The subject of experiment [14] is Influenza A virus. Kind of experiment: Antiviral activity against Amantadine/Oseltamivir-resistant Influenza A virus Denmark/528/2009 (H1N1) clinical isolate infected in MDCK cells expressing ST6Gal by crystal violet staining based plaque reduction assay. Format: functional, organism-based.

With `NC(=O)c1nc(F)cnc1O`, the negative logarithm of the EC50 (pEC50) in [1] is 5.10.

Take `N#Cc1ccc(C(=O)Nc2sc3c(c2C(=O)Nc2ccccc2O)CCCCC3)cc1`: the pEC50 in [2] was 7.49; in [3], 6.55; in [1], 6.85. The Activity entry in experiment [1] is “Dose-Dependent Effect”.

Regarding `N#Cc1ccc(C(=O)Nc2sc3c(c2C(=O)Nc2ccc(C(F)(F)F)cc2)CCCCC3)cc1`, the negative logarithm of the EC50 (pEC50) in experiment [2] is < 5.00.

Turning to `O=C(Nc1sc2c(c1C(=O)Nc1ccc(Cl)cc1)CCCCC2)c1ccccc1O`, in experiment [4], the pIC50 is 6.00.

Take `O=C(Nc1sc2c(c1C(=O)Nc1ccccn1)CCCCC2)c1ccccc1O`: in [4], the pIC50 was 5.55.

In the case of `O=C1C(c2ncc([N+](=O)[O-])s2)CC[C@@H]2CCCC[C@@H]12` (some centres not stated), the negative-log EC50 (pEC50) in experiment [5], in [6], in experiment [7], in [8], in experiment [9] and in experiment [10] was 6.03 throughout. For the same compound, the pEC50 in experiment [11] and in experiment [12] was 6.03 throughout.

In the case of `O=C(Nc1sc2c(c1C(=O)Nc1ccc(F)cc1)CCCCC2)c1ccccc1O`, in experiment [4], the negative logarithm of the IC50 (pIC50) is 6.33.

For the compound `O=C(Nc1sc2c(c1C(=O)Nc1ccccc1O)CCCCC2)c1ccc([N+](=O)[O-])cc1O`, the negative-log EC50 (pEC50) was 6.89 in [2], 7.09 in experiment [3] and 7.06 in experiment [1]. Besides, the Activity entry in [1] was “Dose-Dependent Effect”.

`NC(=O)c1ncn([C@@H]2O[C@H](CO)[C@@H](O)[C@H]2O)n1` [RIBAVIRIN]: the pEC50 in experiment [2] and in experiment [3] was 4.66 throughout.

Regarding `O=C(Nc1sc2c(c1C(=O)Nc1nccs1)CCCCC2)c1ccccc1O`, the negative-log IC50 (pIC50) in experiment [4] was 6.48.

For the compound `O=C(Nc1sc2c(c1C(=O)Nc1ccccn1)CCCCC2)c1ccc([N+](=O)[O-])cc1`, the pIC50 in experiment [4] was 6.57.

On to `C[C@@H](c1ccccc1)n1nnnc1[C@H](c1ccsc1)N1CCC(n2c(=O)[nH]c3ccccc32)CC1`, for which the negative logarithm of the EC50 (pEC50) in experiment [13] and in experiment [14] was 6.22 each time.
